From US9902794B2, “Curable composition, optical component and compound” (FUJIFILM Corporation, priority 2014, dated 2018)

Assay: Solvent solubility evaluation of aromatic ring-containing compound in PGMEA
Type: physicochemical
Conditions: 1 g compound and 1 mL PGMEA stirred for 24 hours at 25° C.
Experimental: <Solvent Solubility Evaluation>
1 g of an aromatic ring-containing compound and 1 mL of propylene glycol monomethyl ether acetate (PGMEA) were stirred for 24 hours at 25° C. and then the aromatic ring-containing compound was mixed with PGMEA uniformly and evaluated by the following criteria.
A: 50% by mass or more of an aromatic ring-containing compound were dissolved in PGMEA.
B: 30% by mass or more and less than 50% by mass of an aromatic ring-containing compound were dissolved in PGMEA.
C: 5% by mass or more and less than 30% by mass of an aromatic ring-containing compound were dissolved in PGMEA.
D: The amount of an aromatic ring-containing compound dissolved in PGMEA was less than 5% by mass.
The solvent solubility of an aromatic ring-containing compound was measured in the same manner as described above.

In the case of `C=CC(=O)OCCOc1ccc(-c2nc3cc(C4(c5ccc6oc(-c7ccc(OCCOC(=O)C=C)cc7)nc6c5)c5ccccc5-c5cc6ccccc6cc54)ccc3o2)cc1` [Compound H], the Solvent solubility evaluation is reported as “B (30% by mass or more and less than 50% by mass of an aromatic ring-containing compound were dissolved in PGMEA)”.

With `C=CC(=O)OCCOc1ccc2cc(-c3ccc4nc(C5(c6nc7ccc(-c8ccc9cc(OCCOC(=O)C=C)ccc9c8)cc7s6)c6ccccc6-c6cc7ccccc7cc65)sc4c3)ccc2c1` [Compound 5] the Solvent solubility evaluation was “A (50% by mass or more of an aromatic ring-containing compound were dissolved in PGMEA)”.

In the case of `C=CC(=O)OCCOc1ccc2cc(C3(c4ccc(OCCOC(=O)C=C)c(-c5nc6ccccc6s5)c4)c4ccccc4-c4cc5ccccc5cc43)ccc2c1` (stereo not drawn) [Compound E], the Solvent solubility evaluation is reported as “A (50% by mass or more of an aromatic ring-containing compound were dissolved in PGMEA)”.

For `C=CC(=O)OCCOc1ccc2c(c1)C(c1ccc(-c3nc4ccccc4o3)cc1)(c1ccc3cc(OCCOC(=O)C=C)ccc3c1)c1cc3ccccc3cc1-2` (stereo not drawn) [Compound D], the Solvent solubility evaluation was “B (30% by mass or more and less than 50% by mass of an aromatic ring-containing compound were dissolved in PGMEA)”.

With `C=CC(=O)OCCOc1ccc(-c2ccc(C3(c4ccc(OCCOC(=O)C=C)cc4)c4ccccc4-c4cc5sc(-c6ccccc6)nc5cc43)cc2)cc1` (stereo not drawn) [Compound C] the Solvent solubility evaluation was “B (30% by mass or more and less than 50% by mass of an aromatic ring-containing compound were dissolved in PGMEA)”.

For `C=CC(=O)OCCOc1ccc(-c2ccc3nc(C4(c5nc6ccc(-c7ccc(OCCOC(=O)C=C)cc7)cc6s5)c5ccccc5-c5cc6ccccc6cc54)sc3c2)cc1` [Compound 4], the Solvent solubility evaluation was “A (50% by mass or more of an aromatic ring-containing compound were dissolved in PGMEA)”.

With `C=CC(=O)OCCOc1ccc2cc(-c3nc4ccc(C5(c6ccc7nc(-c8ccc9cc(OCCOC(=O)C=C)ccc9c8)sc7c6)c6ccccc6-c6ccccc65)cc4s3)ccc2c1` [Compound 8] the Solvent solubility evaluation was “A (50% by mass or more of an aromatic ring-containing compound were dissolved in PGMEA)”.

In the case of `C=CC(=O)OCCOc1ccc(-c2nc3ccc(C4(c5ccc6nc(-c7ccc(OCCOC(=O)C=C)cc7)sc6c5)c5ccccc5-c5cc6ccccc6cc54)cc3s2)cc1` [Compound 9], the Solvent solubility evaluation is reported as “A (50% by mass or more of an aromatic ring-containing compound were dissolved in PGMEA)”.

With `C=CC(=O)OCCOc1ccc2c(c1)-c1cc(OCCOC(=O)C=C)ccc1C2(c1ccc2nc(-c3ccccc3)sc2c1)c1ccc2nc(-c3ccccc3)sc2c1` [Compound B] the Solvent solubility evaluation was “B (30% by mass or more and less than 50% by mass of an aromatic ring-containing compound were dissolved in PGMEA)”.

In the case of `C=CC(=O)OCCOc1ccc2nc(C3(c4nc5ccc(OCCOC(=O)C=C)cc5s4)c4ccccc4-c4ccccc43)sc2c1` [Compound I], the Solvent solubility evaluation is reported as “A (50% by mass or more of an aromatic ring-containing compound were dissolved in PGMEA)”.

For `C=CC(=O)OCCOc1ccc2nc(-c3ccc(C4(c5ccc(-c6nc7ccc(OCCOC(=O)C=C)cc7s6)cc5)c5ccccc5-c5ccccc54)cc3)sc2c1` [Compound 3], the Solvent solubility evaluation was “A (50% by mass or more of an aromatic ring-containing compound were dissolved in PGMEA)”.

For `C=CC(=O)OCCOc1ccc2nc(-c3ccc(C4(c5ccc(-c6nc7ccc(OCCOC(=O)C=C)cc7s6)cc5)c5ccccc5-c5cc6ccccc6cc54)cc3)sc2c1` [Compound 6], the Solvent solubility evaluation was “A (50% by mass or more of an aromatic ring-containing compound were dissolved in PGMEA)”.

For `C=CC(=O)OCCOc1ccc(C2(c3ccc4sc(-c5ccccc5)nc4c3)c3ccccc3-c3cc(OCCOC(=O)C=C)ccc32)cc1` (stereo not drawn) [Compound F], the Solvent solubility evaluation was “B (30% by mass or more and less than 50% by mass of an aromatic ring-containing compound were dissolved in PGMEA)”.

With `C=CC(=O)OCCOc1ccc2c(c1)-c1cc3ccccc3cc1C2(c1ccc(-c2nc3ccccc3s2)cc1)c1ccc(OCCOC(=O)C=C)c2ccccc12` (stereo not drawn) [Compound 2] the Solvent solubility evaluation was “A (50% by mass or more of an aromatic ring-containing compound were dissolved in PGMEA)”.

With `C=CC(=O)OCCOc1ccc(C2(c3ccc4sc(-c5ccc6cc(OCCOC(=O)C=C)ccc6c5)nc4c3)c3ccccc3-c3cc4ccccc4cc32)cc1` (stereo not drawn) [Compound J] the Solvent solubility evaluation was “A (50% by mass or more of an aromatic ring-containing compound were dissolved in PGMEA)”.

In the case of `C=CC(=O)OCCOc1ccc2c(c1)-c1cc3ccccc3cc1C2(c1ccc(-c2nc3ccccc3s2)cc1)c1ccc2cc(OCCOC(=O)C=C)ccc2c1` (stereo not drawn) [Compound 1], the Solvent solubility evaluation is reported as “A (50% by mass or more of an aromatic ring-containing compound were dissolved in PGMEA)”.

With `C=CC(=O)OCCOc1ccc(-c2nc3ccc(C4(c5ccc6nc(-c7ccc(OCCOC(=O)C=C)cc7)sc6c5)c5ccccc5-c5ccccc54)cc3s2)cc1` [Compound 7] the Solvent solubility evaluation was “A (50% by mass or more of an aromatic ring-containing compound were dissolved in PGMEA)”.

In the case of `C=CC(=O)OCCOc1ccc(C2(c3ccc(OCCOC(=O)C=C)cc3)c3ccccc3-c3ccccc32)cc1` [Comparative Compound 1, reference compound], the Solvent solubility evaluation is reported as “C (5% by mass or more and less than 30% by mass of an aromatic ring-containing compound were dissolved in PGMEA)”.

For `C=CC(=O)OCCOc1ccc(C2(c3ccc(OCCOC(=O)C=C)cc3)c3ccccc3-c3cc4sc(-c5ccccc5)nc4cc32)cc1` [Compound G], the Solvent solubility evaluation was “B (30% by mass or more and less than 50% by mass of an aromatic ring-containing compound were dissolved in PGMEA)”.

For `C=CC(=O)OCCOc1ccc(-c2nc3cc(C(c4ccccc4)(c4ccccc4)c4ccc5sc(-c6ccc(OCCOC(=O)C=C)cc6)nc5c4)ccc3s2)cc1` [Compound A], the Solvent solubility evaluation was “B (30% by mass or more and less than 50% by mass of an aromatic ring-containing compound were dissolved in PGMEA)”.

With `C=CC(=O)OCCOc1ccc2cc(-c3nc4ccc(C5(c6ccc7nc(-c8ccc9cc(OCCOC(=O)C=C)ccc9c8)sc7c6)c6ccccc6-c6cc7ccccc7cc65)cc4s3)ccc2c1` [Compound 10] the Solvent solubility evaluation was “A (50% by mass or more of an aromatic ring-containing compound were dissolved in PGMEA)”.
